In article PMC10452460, “In Silico, In Vitro, and In Vivo Investigations on Adapalene as Repurposed Third Generation Retinoid against Multiple Myeloma and Leukemia” (Cancers, 2023) one finds Kd data, which are given here for 1 compound.

In this assay the target is T1, c-MYC (Homo sapiens, UniProt P01106).
T1 construct: recombinant human c-MYC protein (ab169901, Abcam)
As to the kind of experiment: microscale thermophoresis with Blue-NHS labelled c-MYC ([…]). Format: binding.

T1 sequence (P01106 16-454): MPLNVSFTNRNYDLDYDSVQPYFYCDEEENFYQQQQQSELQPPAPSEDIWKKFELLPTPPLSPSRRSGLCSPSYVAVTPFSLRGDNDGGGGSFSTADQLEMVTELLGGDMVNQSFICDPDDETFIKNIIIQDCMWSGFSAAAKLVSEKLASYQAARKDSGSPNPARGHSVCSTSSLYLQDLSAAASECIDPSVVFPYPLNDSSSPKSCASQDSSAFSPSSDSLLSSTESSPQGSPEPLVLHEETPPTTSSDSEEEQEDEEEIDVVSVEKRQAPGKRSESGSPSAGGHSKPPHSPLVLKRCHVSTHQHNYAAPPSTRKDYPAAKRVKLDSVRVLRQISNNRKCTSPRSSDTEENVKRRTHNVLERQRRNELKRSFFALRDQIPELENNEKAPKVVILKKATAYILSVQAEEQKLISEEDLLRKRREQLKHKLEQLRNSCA

In turn, `COc1ccc(-c2ccc3cc(C(=O)O)ccc3c2)cc1C12CC3CC(CC(C3)C1)C2` [adapalene] came in with a Kd of 3.05 µM. That is a single-digit micromolar value.
